Measured values from patent US20140128399A1, “METHODS AND COMPOSITIONS FOR TREATING URINARY TRACT INFECTIONS USING AGENTS THAT MIMIC OR ELEVATE CYCLIC AMP” (DUKE UNIVERSITY, priority 2007, published 2014).

Key:
[1] = test system: human bladder epithelial cells; assay: Intracellular cAMP enzyme immunoassay; type: cell-based
Protocol: In this example, the effect of bacterial lipopolysccharide (LPS), a Toll-like Receptor 4 (TLR4) ligand, on intracellular levels of cAMP was assessed in human bladder epithelial cells (BECs). Methods are as described in Song et al. (2007) PLoS Pathog. 3(4):e60. BECs were seeded onto 6-well plates and grown overnight. The cells were treated with […] E. coli LPS for 6 h at 37° C., followed by washing four times with PBS to remove culture media, followed by an addition of […] of 0.1 M HCl. After a 10 min incubation, the cell lysate was centrifuged and the supernatant was used directly in the cAMP assay. Intracellular concentrations of cAMP were determined using a cAMP enzyme immunoassay kit (Sigma) according to the manufacturer's instructions.

phosphodiesterases = conditions: read-out: IC50, non-specific inhibitor of phosphodiesterases; cited from earlier work
[2] = test system: E. coli-infected human bladder epithelial cells (BECs); assay: Intracellular bacterial levels in BECs; type: cell-based; conditions: single agent, presented as % of control in figures
Protocol: Intracellular bacterial levels in BECs were measured in untreated BECs and in BECs treated with forskolin, various PDE inhibitors, and a combination of forskolin with a PDE inhibitor. Several PDE inhibitors were used, including both broadly active PDE inhibitors that block PDEs in a non-specific manner as well as specific PDE inhibitors that block only certain PDEs.

[3] = test system: UPEC J96 invasion into 5637 BECs; assay: Gentamicin protection assay, UPEC invasion; type: cell-based, human; conditions: dilution 1:10
Protocol: (§1) A gentamicin protection assay, including 5637 BECs on 96-well plates (40,000 cells/well), was used to determine the effect of forskolin on UPEC invasion. In this example, the UPEC was either J96 or E. coli ORN103(pSH2). 50 μM forskolin was administered as a pretreatment for 15 min before infection or administered at the same time as the bacteria.

[4] = test system: E. coli ORN103(pSH2) invasion into 5637 BECs; assay: Gentamicin protection assay, UPEC invasion; type: cell-based, human; conditions: dilution 1:10
Protocol: as §1

E. coli CI5 [5] = assay: In vivo bladder infection, 24-h-long infection, intravesicular forskolin; parameters: species or system mouse; conditions: Balb/c mice
Protocol: (§2) In this procedure, 8-week-old female BALB/c mice were anesthetized with sodium pentobarbital and then inoculated transurethrally with 50 μl of either E. coli CI5 or a bacterial suspension (approximately 1.0×10^8 CFU) suspended in PBS. After 2 h, the bladders were removed aseptically. Then the bladders were either bisected and fixed with 2% paraformaldehyde plus 2% gluteraldehyde in PBS (for transmission electron microscopy) or frozen for immunofluorescence microscopy. For the 2-h-long infections with E. coli and S. enterica SL1344, BALB/c mice were infected as above. After 2 h, the mice were intraperitoneally injected with 100 μl PBS (with or without 10 mg/kg forskolin) and intravesicularly instilled, for 1 h, with 100 μg/ml gentamicin in PBS (with or without 100 μM forskolin). For the 24-h-long infections, BALB/c mice were infected. After 24 h, the mice were intravesicularly instilled with 50 μl of PBS (with or without 100 μM forskolin) for 1 h. The 100 μM forskolin in PBS was replaced by 100 μg/ml gentamicin in PBS for 30 min. The bladders were then removed aseptically and homogenized them in 0.1% Triton X-100 in PBS. Homogenate dilutions were plated for colony counts.

[6] = test system: fusiform vesicles of mouse bladder BECs; assay: Immunofluorescence of bladder sections (Rab27b); type: in vivo; conditions: mouse bladders, antibodies to Rab27b, forskolin 100 μM 1 h
Protocol: Balb/c mice were either infected with E. coli CI5 as above, or they were treated with either 100 μM forskolin or PBS for 1 h through a catheter. Frozen sections of these bladders were cut using standard methods. Each section was fixed in 100% ethanol for 20 min at −20° C., and blocked in PBS with 1% BSA for 1 h at 4° C. Sections were incubated overnight at 25° C. with primary antibodies to either Rab27b (Santa Cruz Biotechnology, Inc., Santa Cruz, Calif.) or UPIII (Santa Cruz Biotechnology), and washed. Sections were incubated for 1 h at room temperature with secondary antibodies, and washed. To visualize the nuclei, the sections were incubated with Hoechst-33258 for 5 min at room temperature and then washed. All dilutions and washes were with PBS and 1% BSA. Coverslips were viewed as described previously.

bacteria = assay: Bacterial viability (data not shown)
S. enterica SL1344 = assay: In vivo bladder infection, 2-h-long infection, intracellular bacterial CFU; parameters: species or system mouse; conditions: BALB/c mice, forskolin 2 h after infection, i.p. 10 mg/kg and by catheter 100 μM
Protocol: as §2

E. coli CI5 [7] = assay: as above; parameters: species or system mouse; conditions: BALB/c mice, forskolin 2 h after infection, i.p. 10 mg/kg and by catheter 100 μM
Protocol: as §2

5637 BECs = assay: β-hexosaminidase release assay; type: cell-based, human; conditions: uninfected 5637 BECs, 1 hr; forskolin 100 μM, dibutyryl-cAMP 1 mM, calcium ionophore 1 μM
IL-6 = IL-6 ELISA of urine; type: in vivo, mouse
Protocol: In this assay, 8-week-old female C3H/HeJ mice were infected with E. coli CI5 as above. After 6 h, the mice were intraperitoneally injected with 100 μl of PBS, with or without 10 mg/kg forskolin. Urine was collected at 6 and 24 h after infection, using clean catch methods, and the samples were stored at −80° C. The concentration of IL-6 in the urine was determined using the mouse IL-6 ELISA kit (eBioscience, San Diego, Calif.) according to the manufacturer's protocol.

E. coli CI5 [8] = assay: In vivo bladder infection with 3-d-long forskolin regimen; parameters: species or system mouse; conditions: C3H/HeJ mice, forskolin 10 mg/kg i.p. at 6, 24 and 48 h; at 72 h; P≦0.03
Protocol: In this procedure, 8-week-old female C3H/HeJ mice were infected with E. coli CI5 as above. At 6, 24 and 48 h after infection, the mice were intraperitoneally injected with 100 μl PBS, with or without 10 mg/kg forskolin. At 72 h after infection, bladders were aseptically removed and plated for colony counts.

UPEC strain CI5 = assay: In vivo gentamicin protection assay, UPEC colonization of the bladder; parameters: species or system mouse; conditions: IP Fsk/Cather Fsk, 1 hr treatment
Protocol: An in vivo gentamicin protection assay was used to determine the effect of forskolin on UPEC colonization of the bladder. In this example, UPEC strain CI5 was injected into the bladder via catheter to initiate a urinary tract infection. After 2 hours of infection, the mice were re-catheterized, the urine was removed, and the bladder was treated with 100 uM forskolin in PBS for 1 hour. After the forskolin treatment, 100 ug/ml gentamicin in PBS was injected into the bladder via catheter for 30 minutes. The bladders were then removed, washed in sterile PBS, and homogenized. The homogenates were plated on LB agar for overnight colony counts at various dilutions. Control mice were treated with PBS alone instead of forskolin plus PBS. The top half of Table 3 represents the raw colony counts while the bottom half of Table 3 represents the calculated bladder load of UPEC strain C15 based on the dilutions.

[9] = J96, 50 μM forskolin at the same time as the bacteria
[10] = J96, 50 μM forskolin pretreatment 15 min before infection
[11] = SH2, 50 μM forskolin at the same time as the bacteria
[12] = SH2, 50 μM forskolin pretreatment 15 min before infection

CC(C)Cn1c(=O)n(C)c(=O)c2[nH]cnc21 [IBMX, 3-Isobutyl-1-methylxanthine]
intracellular cAMP levels compared to untreated controls [1]: significantly increases | IC50 (phosphodiesterases): 2 to 50 µM

CCCCCCCCCCCCCC(=O)O[C@@H]1[C@@H](C)[C@@]2(O)[C@@H](C=C(CO)C[C@]3(O)C(=O)C(C)=C[C@@H]23)[C@@H]2C(C)(C)[C@]12OC(C)=O [PMA, phorbol myristate acetate]
bacterial loads / intracellular bacterial numbers in BECs [2]: significantly reduced

C=C[C@@]1(C)CC(=O)[C@]2(O)[C@@]3(C)[C@@H](O)CCC(C)(C)[C@@H]3[C@H](O)[C@H](OC(C)=O)[C@@]2(C)O1 [forskolin]
intracellular bacteria, Mean [3, 9]: 545 colony counts | intracellular bacteria, replicate 1 [3, 9]: 800 colony counts | intracellular bacteria, replicate 2 [3, 9]: 640 colony counts | intracellular bacteria, replicate 3 [3, 9]: 460 colony counts | intracellular bacteria, replicate 4 [3, 9]: 280 colony counts | intracellular bacteria, Mean [3, 10]: 535 colony counts | intracellular bacteria, replicate 1 [3, 10]: 720 colony counts | intracellular bacteria, replicate 2 [3, 10]: 140 colony counts | intracellular bacteria, replicate 3 [3, 10]: 200 colony counts | intracellular bacteria, replicate 4 [3, 10]: 1080 colony counts | intracellular bacteria, Mean [4, 11]: 10575 colony counts | intracellular bacteria, replicate 1 [4, 11]: 10980 colony counts | intracellular bacteria, replicate 2 [4, 11]: 8260 colony counts | intracellular bacteria, replicate 3 [4, 11]: 14140 colony counts | intracellular bacteria, replicate 4 [4, 11]: 8920 colony counts | intracellular bacteria, Mean [4, 12]: 9553 colony counts | intracellular bacteria, replicate 1 [4, 12]: 8860 colony counts | intracellular bacteria, replicate 2 [4, 12]: 9060 colony counts | intracellular bacteria, replicate 3 [4, 12]: 10740 colony counts | reduction in the number of E. coli CI5 within bladder compared to saline-treated controls (E. coli CI5 [5]; intravesicular forskolin 100 μM 24 h after infection, P≦0.033): 79.4% | mice harboring >10^5 bacteria in their bladders (E. coli CI5 [5]; intravesicular forskolin 24 h after infection, control 33%, P≦0.01): 4.1% | translocation of fusiform vesicles to the apical plasma membrane [6]: translocation of fusiform vesicles to the apical plasma membrane of mouse bladders was detected | effect on bacterial viability (bacteria): no effect | effect on intracellular S. enterica SL1344 (S. enterica SL1344): no effect | intracellular E. coli CI5 eliminated (E. coli CI5 [7]): over 99% | release of β-hexosaminidase into extracellular media (5637 BECs): stimulated the BECs to release appreciable levels of β-hexosaminidase | decrease in urine IL-6 (IL-6; E. coli CI5-infected C3H/HeJ mice, 18 h after forskolin 10 mg/kg i.p., P≦0.0003): 99.6% | IL-6 levels in uninfected mice (IL-6; forskolin treatment alone, uninfected mice): did not alter IL-6 levels | decrease of average bacterial load within the bladders compared to control mice (E. coli CI5 [8]): 56% | Percent Control (bladder load), Average (UPEC strain CI5): 0.41% | Percent Control (bladder load), mouse 1 (UPEC strain CI5): 0.45% | Percent Control (bladder load), mouse 2 (UPEC strain CI5): 0.22% | Percent Control (bladder load), mouse 3 (UPEC strain CI5): 0.56% | raw colony counts of bladder homogenate, Average (UPEC strain CI5): 83 colony counts | calculated bladder load of UPEC strain CI5, Average (UPEC strain CI5; based on the dilutions): 1653 colony counts | calculated bladder load of UPEC strain CI5, mouse 1 (UPEC strain CI5; based on the dilutions): 1820 colony counts | calculated bladder load of UPEC strain CI5, mouse 2 (UPEC strain CI5; based on the dilutions): 900 colony counts | calculated bladder load of UPEC strain CI5, mouse 3 (UPEC strain CI5; based on the dilutions): 2240 colony counts | raw colony counts of bladder homogenate, mouse 1 (UPEC strain CI5; dilution 1:1): 91 colony counts | raw colony counts of bladder homogenate, mouse 2 (UPEC strain CI5; dilution 1:1): 45 colony counts | raw colony counts of bladder homogenate, mouse 3 (UPEC strain CI5; dilution 1:1): 112 colony counts
